Some test systems named below: HCT-116; SK-MEL-2; RPMI-8226; LOX IMVI; NCI-H522; OVCAR-8; NCI-H23; UACC-62; SF-539; KM-20L2; SNB-75; COLO 205; EKVX; HCT-15; RXF 393; HOP-92; OVCAR-3.
Assay in all cases: NCI anticancer screen, dose series, 48 h

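Values below derive from 48-hour exposures of cells grown in 96-well plates, with endpoints linearly interpolated between the two concentrations bracketing the appropriate inhibition level. The concentration for 50% growth inhibition is given as GI50.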 Active and inactive are the calls of the source. Cut-off read from the data, not from the text of the source: active = GI50 up to about 1.1 µM and inactive = higher.

Take `C/C=C(/I)CBr`: the GI50 is 13.9 µM (inactive) with HCT-116; 14.4 µM (inactive) in the experiment on SK-MEL-2; 10.4 µM (inactive) in the experiment with RPMI-8226; 16.2 µM (inactive) in the experiment on LOX IMVI; 2.03 µM (inactive) with NCI-H522; 19.4 µM (inactive) in the experiment on OVCAR-8. The GI50 in the experiment with NCI-H23 was 16.7 µM (inactive); in the experiment with UACC-62 it was 15.5 µM (inactive); with SF-539 it was 17 µM (inactive); in the experiment on KM-20L2, 29.5 µM (inactive); in the experiment with SNB-75, > 10 µM (inactive); in the experiment with COLO 205 it was 13.2 µM (inactive). The GI50 was 21.7 µM (inactive) in the experiment with EKVX, 18.2 µM with HCT-15, 17.3 µM (inactive) in the experiment with RXF 393 and 15.3 µM (inactive) in the experiment on HOP-92.
On to `COc1ccc(C(=O)C(c2ccc(OC)cc2)C2(O)C(=O)Nc3c(Cl)cc(Cl)cc32)cc1` (centres undefined), for which the GI50 was 14.1 µM (inactive) in the experiment on SK-MEL-2; 11.9 µM (inactive) in the experiment with RPMI-8226; 19.3 µM (inactive) in the experiment on LOX IMVI; 18.2 µM (inactive) in the experiment with NCI-H522; 23.7 µM (inactive) in the experiment with OVCAR-8; 19.5 µM (inactive) in the experiment with NCI-H23. In addition, the GI50 in the experiment with OVCAR-3 was 22.8 µM (inactive); with KM-20L2, 21.1 µM (inactive); in the experiment on SNB-75, 22.9 µM (inactive); with COLO 205, 29.4 µM (inactive); in the experiment on EKVX, 18.7 µM (inactive); with HCT-15 it was 21.5 µM. Also, the figures for the GI50 in the experiment with RXF 393 and in the experiment with HOP-92 were 22.3 µM (inactive) and 15.3 µM (inactive), respectively.
In the case of `CC1NOC(=O)C1/N=N/c1cccc(Cl)c1` (centres undefined), the GI50 is 31.7 µM (inactive) in the experiment with HCT-116; 16.5 µM (inactive) in the experiment on SK-MEL-2; 28.8 µM (inactive) in the experiment with LOX IMVI; 23.5 µM (inactive) with NCI-H522; 44.8 µM (inactive) in the experiment with OVCAR-8; 99.5 µM (inactive) with NCI-H23. In addition, the GI50 with OVCAR-3 is 22.5 µM (inactive); in the experiment on UACC-62, 34.6 µM (inactive); in the experiment on SF-539 it was 34.3 µM (inactive); in the experiment on KM-20L2 it was 35.6 µM (inactive); in the experiment with SNB-75 it was 36.1 µM (inactive); in the experiment on COLO 205, 20.5 µM (inactive). Moreover, the GI50 in the experiment with EKVX was 37.5 µM (inactive); in the experiment on HCT-15, 17.7 µM; with RXF 393, 22.8 µM (inactive); in the experiment with HOP-92, 26.4 µM (inactive).
Consider `CC(Oc1cc2oc(=O)cc(-c3ccccc3)c2cc1Cl)C(=O)O` (centres undefined), for which the GI50 in the experiment on HCT-116, in the experiment with LOX IMVI, in the experiment with NCI-H522, in the experiment with OVCAR-8, in the experiment on NCI-H23 and with OVCAR-3 was > 100 µM (inactive) in each case. For the same compound, the GI50 in the experiment with UACC-62, with SF-539, in the experiment on KM-20L2, in the experiment with SNB-75, with COLO 205 and in the experiment with EKVX was > 100 µM (inactive) in each case. In addition, the GI50 in the experiment with RXF 393 and with HOP-92 was > 100 µM (inactive) in each case.
With `COc1ccc(/C=C/C(=O)c2c(-c3ccccc3)nn(C)c(=O)c2N2CC2C)cc1` (centres undefined), the GI50 with HCT-116 is 36.1 µM (inactive); in the experiment on SK-MEL-2, 21.8 µM (inactive); with LOX IMVI, 16.3 µM (inactive); in the experiment on NCI-H522, 22.7 µM (inactive); in the experiment with OVCAR-8 it was 32.4 µM (inactive); in the experiment with NCI-H23 it was 19 µM (inactive). In addition, the GI50 in the experiment with OVCAR-3 was 24.3 µM (inactive); with UACC-62, 19 µM (inactive); in the experiment on SF-539 it was 39.1 µM (inactive); with KM-20L2, 23.9 µM (inactive); with SNB-75, 24.8 µM (inactive); with COLO 205 it was 34.3 µM (inactive). Further, the GI50 was 19.6 µM (inactive) in the experiment on EKVX, 24.3 µM in the experiment with HCT-15, 27.9 µM (inactive) in the experiment with RXF 393 and 29 µM (inactive) with HOP-92.
For `CC1=C(C(=O)Nc2ccccc2)C(c2ccc([N+](=O)[O-])cc2)C(C(=O)Nc2ccccc2)=C(C)N1`, the GI50 in the experiment with HCT-116 is 18.5 µM (inactive); in the experiment on SK-MEL-2, 14.7 µM (inactive); in the experiment with RPMI-8226, 15.2 µM (inactive); in the experiment on LOX IMVI it was 15.2 µM (inactive); in the experiment with NCI-H522, 18.3 µM (inactive); in the experiment with OVCAR-8, 17.3 µM (inactive). Moreover, the GI50 with NCI-H23 is 17 µM (inactive); in the experiment with OVCAR-3, 21.7 µM (inactive); with UACC-62, 12.2 µM (inactive); with SF-539, 20.7 µM (inactive); with KM-20L2, 18.3 µM (inactive); in the experiment on SNB-75, 26.6 µM (inactive). In addition, the GI50 in the experiment on EKVX is 21.5 µM (inactive); with HCT-15, 17.6 µM; in the experiment on RXF 393, 17.6 µM (inactive); in the experiment with HOP-92 it was 17.9 µM (inactive).
With `CCN(CC)CC(C(=O)Nc1c(C)cccc1C)/C(C)=N/NC(N)=S` (centres undefined), the GI50 with HCT-116, in the experiment on SK-MEL-2, with RPMI-8226, with LOX IMVI, in the experiment on NCI-H522 and in the experiment with OVCAR-8 was > 100 µM (inactive) throughout. Further, the GI50 in the experiment on NCI-H23, in the experiment on OVCAR-3, in the experiment on UACC-62, in the experiment with SF-539, with KM-20L2 and in the experiment with SNB-75 was > 100 µM (inactive) in each case. Further, the GI50 with COLO 205, with EKVX, in the experiment with RXF 393 and in the experiment on HOP-92 was > 100 µM (inactive) throughout.
Take `CCCCCCCC(=O)NCC(O)CNC(=O)CCCCCCC`: the GI50 with HCT-116, in the experiment with RPMI-8226, in the experiment with LOX IMVI, in the experiment with NCI-H522, in the experiment with OVCAR-8 and in the experiment on NCI-H23 was > 100 µM (inactive) in each case. The GI50 in the experiment with OVCAR-3, with UACC-62, with SF-539, in the experiment on KM-20L2, in the experiment on SNB-75 and in the experiment on COLO 205 was > 100 µM (inactive) throughout. Also, the GI50 with EKVX was > 100 µM (inactive); with HCT-15 it was above 100 µM; in the experiment on RXF 393, > 100 µM (inactive); in the experiment on HOP-92 it was > 100 µM (inactive).
In the case of `Cc1nc2c(n1CC(C)C)C(=O)c1ccccc1C2=O`, the GI50 in the experiment on HCT-116 is 20.8 µM (inactive); with SK-MEL-2 it was 25.5 µM (inactive); with LOX IMVI it was 29.3 µM (inactive); with NCI-H522, 26.5 µM (inactive); in the experiment on OVCAR-8, 35.5 µM (inactive); with NCI-H23, 18 µM (inactive). Further, the GI50 is 25.4 µM (inactive) in the experiment with OVCAR-3; 20.7 µM (inactive) in the experiment on UACC-62; 24.8 µM (inactive) in the experiment with SF-539; 35.6 µM (inactive) in the experiment on KM-20L2; 42.8 µM (inactive) in the experiment on SNB-75; 36 µM (inactive) with COLO 205. Also, the GI50 in the experiment on EKVX was 38 µM (inactive); in the experiment with HCT-15 it was 37.5 µM; with RXF 393, 35.2 µM (inactive); in the experiment on HOP-92, 10.4 µM (inactive).
For `C=CCOC(C)n1c(C)cc(=O)n(C(C)OCC=C)c1=O` (centres undefined), the GI50 in the experiment with HCT-116, in the experiment on RPMI-8226, in the experiment with NCI-H522, in the experiment on OVCAR-8, in the experiment on NCI-H23 and in the experiment on UACC-62 was > 100 µM (inactive) each time. Further, the GI50 in the experiment on SF-539 was > 100 µM (inactive); in the experiment on KM-20L2 it was > 100 µM (inactive); in the experiment on SNB-75, > 100 µM (inactive); in the experiment with COLO 205, > 100 µM (inactive); with EKVX, > 100 µM (inactive); with HCT-15, above 100 µM. Besides, the GI50 in the experiment with RXF 393 is > 100 µM (inactive); in the experiment on HOP-92 it was 72.1 µM (inactive).

The values are drawn from ChEMBL document CHEMBL1201862, “PubChem BioAssay data set” (2004).
